Reference: patent US6706663B2, “Herbicidal 3-heterocyclic substituted benzisothiazole and benzisoxazole compounds” (Wyeth, priority 2000, dated 2004)

Assays:
[1] = system: GLXMAW (Soybean, Williams); assay: Postemergence herbicidal evaluation; type: in vivo, Glycine max, (L.) Merr. cv Williams
How it was run: (§1)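 Visual 0–9 injury scores versus control plants, covering stand, vigour, malformation, size, chlorosis and general appearance, taken four to five weeks post-spray and averaged over replicate tests. Plants were sprayed at roughly two weeks old and held on greenhouse benches.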

[2] = system: TRZAWR (Wheat, Winter, cv Riband); assay: Preemergence herbicidal evaluation; type: in vivo, Triticum aestivum; settings: preemergence, rated 4-5 weeks after treatment
How it was run: (§2)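 Visual 0-9 rating versus untreated control, taken four to five weeks post-treatment, scoring stand, vigor, malformation, size, chlorosis and overall appearance. Compound applied as aqueous acetone spray to freshly seeded soil cups, then kept under standard greenhouse care.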

[3] = system: CASOB (Cassia obtusifolia); assay: Postemergence herbicidal evaluation; type: in vivo, L.
How it was run: as §1

[4] = system: AMBEL (Ambrosia artemisifolia); assay: Postemergence herbicidal evaluation; type: in vivo, L.
How it was run: as §1

[5] = system: CHEAL (Chenopodium album); assay: Postemergence herbicidal evaluation; type: in vivo, L.
How it was run: as §1

[6] = system: ABUTH (Abutilon theophrasti); assay: Postemergence herbicidal evaluation; type: in vivo, Medic.
How it was run: as §1

GALAP (Galium aparine) [7] = assay: Postemergence herbicidal evaluation; type: in vivo
How it was run: as §1

ORYSAT (Rice, Tebonnet) [8] = assay: Preemergence herbicidal evaluation; type: in vivo, Oryza sativa, (L.) Tebonnet; settings: preemergence, rated 4-5 weeks after treatment
ORYSAT (Rice, Tebonnet) [9] = assay: Postemergence herbicidal evaluation; type: in vivo, Oryza sativa, (L.) Tebonnet
How it was run: as §1

[10] = system: IPOHE (Ipomoea hederacea); assay: Postemergence herbicidal evaluation; type: in vivo, (L.) Jacq.
How it was run: as §1

[11] = system: ECHCG (Echinochloa crus-galli); assay: Preemergence herbicidal evaluation; type: in vivo, (L.) Beau; settings: preemergence, rated 4-5 weeks after treatment
How it was run: as §2

SETVI (Setaria viridis) = assay: Preemergence herbicidal evaluation; type: in vivo, (L.) Beau; settings: preemergence, rated 4-5 weeks after treatment
How it was run: as §2

ZEAMX (Corn, Field) = assay: Postemergence herbicidal evaluation; type: in vivo, Zea mays, L.
How it was run: as §1

GALAP (Galium aparine) [12] = assay: Preemergence herbicidal evaluation; type: in vivo; settings: preemergence, rated 4-5 weeks after treatment
How it was run: as §2

Compound	Postemergence herbicidal rating, GLXMAW ([1]; rate 0.0320 kg/ha)	Postemergence herbicidal rating, GLXMAW ([1]; rate 0.0620 kg/ha)	TRZAWR preemergence herbicidal rating ([2]; Rate 0.0620 kg/ha)	TRZAWR preemergence herbicidal rating ([2]; Rate 0.1250 kg/ha)	TRZAWR preemergence herbicidal rating ([2]; Rate 0.2500 kg/ha)	Postemergence herbicidal rating, CASOB ([3]; rate 0.0320 kg/ha)	Postemergence herbicidal rating, CASOB ([3]; rate 0.0620 kg/ha)	Postemergence herbicidal rating, AMBEL ([4]; rate 0.0320 kg/ha)	Postemergence herbicidal rating, AMBEL ([4]; rate 0.0620 kg/ha)	Postemergence herbicidal rating, CHEAL ([5]; rate 0.0320 kg/ha)	Postemergence herbicidal rating, CHEAL ([5]; rate 0.0620 kg/ha)	Postemergence herbicidal rating, ABUTH ([6]; rate 0.0320 kg/ha)	Postemergence herbicidal rating, ABUTH ([6]; rate 0.0620 kg/ha)	Postemergence herbicidal rating, GALAP (GALAP (Galium aparine) [7]; rate 0.0320 kg/ha)	Postemergence herbicidal rating, GALAP (GALAP (Galium aparine) [7]; rate 0.0620 kg/ha)	ORYSAT preemergence herbicidal rating (ORYSAT (Rice, Tebonnet) [8]; Rate 0.0620 kg/ha)	ORYSAT preemergence herbicidal rating (ORYSAT (Rice, Tebonnet) [8]; Rate 0.1250 kg/ha)	ORYSAT preemergence herbicidal rating (ORYSAT (Rice, Tebonnet) [8]; Rate 0.2500 kg/ha)	Postemergence herbicidal rating, ORYSAT (ORYSAT (Rice, Tebonnet) [9]; rate 0.0320 kg/ha)	Postemergence herbicidal rating, ORYSAT (ORYSAT (Rice, Tebonnet) [9]; rate 0.0620 kg/ha)	further results
Cn1c(C(F)(F)F)cc(=O)n(-c2ccc3snc(C4SCCN4C(=O)c4ccccc4)c3c2)c1=O (stereo not drawn) [Compound 30, 3-benzoyl-2-[5-[3,6-dihydro-3-methyl-2,6-dioxo-4-(trifluoromethyl)-1(2H)-pyrimidinyl]-1,2-benzisothiazol-3-yl]thiazolidine]	6.0	6.5	0.0	2.0	6.0	0.0	2.0	4.0	9.0	4.0	9.0	9.0	9.0	1.0	3.0	0.0	0.0	1.0	2.0	3.0	Postemergence herbicidal rating, IPOHE ([10]; rate 0.0320 kg/ha): 7.0; Postemergence herbicidal rating, IPOHE ([10]; rate 0.0620 kg/ha): 9.0; ECHCG preemergence herbicidal rating ([11]; Rate 0.0620 kg/ha): 0.0; ECHCG preemergence herbicidal rating ([11]; Rate 0.1250 kg/ha): 4.0; ECHCG preemergence herbicidal rating ([11]; Rate 0.2500 kg/ha): 5.0; SETVI preemergence herbicidal rating (SETVI (Setaria viridis); Rate 0.0620 kg/ha): 1.0; SETVI preemergence herbicidal rating (SETVI (Setaria viridis); Rate 0.1250 kg/ha): 8.0; SETVI preemergence herbicidal rating (SETVI (Setaria viridis); Rate 0.2500 kg/ha): 9.0; Postemergence herbicidal rating, ZEAMX (ZEAMX (Corn, Field); rate 0.0320 kg/ha): 4.5; Postemergence herbicidal rating, ZEAMX (ZEAMX (Corn, Field); rate 0.0620 kg/ha): 6.0; GALAP preemergence herbicidal rating (GALAP (Galium aparine) [12]; Rate 0.0620 kg/ha): 0.0; GALAP preemergence herbicidal rating (GALAP (Galium aparine) [12]; Rate 0.1250 kg/ha): 7.0; GALAP preemergence herbicidal rating (GALAP (Galium aparine) [12]; Rate 0.2500 kg/ha): 9.0
Cn1c(C(F)(F)F)cc(=O)n(-c2ccc3snc(C4OCCS4)c3c2)c1=O (stereo not drawn) [Compound 31, 1-methyl-3-[3-(1,3-oxathiolan-2-yl)-1,2-benzisothiazol-5-yl]-6-(trifluoromethyl)uracil]	8.5	9.0	7.0	8.0	9.0	5.0	8.0	9.0	9.0	9.0	9.0	9.0	9.0	6.0	9.0	4.0	7.7	8.5	3.5	5.5	Postemergence herbicidal rating, IPOHE ([10]; rate 0.0320 kg/ha): 9.0; Postemergence herbicidal rating, IPOHE ([10]; rate 0.0620 kg/ha): 9.0; ECHCG preemergence herbicidal rating ([11]; Rate 0.0620 kg/ha): 4.7; ECHCG preemergence herbicidal rating ([11]; Rate 0.1250 kg/ha): 8.7; ECHCG preemergence herbicidal rating ([11]; Rate 0.2500 kg/ha): 9.0; SETVI preemergence herbicidal rating (SETVI (Setaria viridis); Rate 0.0620 kg/ha): 7.7; SETVI preemergence herbicidal rating (SETVI (Setaria viridis); Rate 0.1250 kg/ha): 9.0; SETVI preemergence herbicidal rating (SETVI (Setaria viridis); Rate 0.2500 kg/ha): 9.0; Postemergence herbicidal rating, ZEAMX (ZEAMX (Corn, Field); rate 0.0320 kg/ha): 5.5; Postemergence herbicidal rating, ZEAMX (ZEAMX (Corn, Field); rate 0.0620 kg/ha): 5.5; GALAP preemergence herbicidal rating (GALAP (Galium aparine) [12]; Rate 0.0620 kg/ha): 5.0; GALAP preemergence herbicidal rating (GALAP (Galium aparine) [12]; Rate 0.1250 kg/ha): 9.0; GALAP preemergence herbicidal rating (GALAP (Galium aparine) [12]; Rate 0.2500 kg/ha): 9.0
Cn1c(C(F)(F)F)cc(=O)n(-c2ccc3snc(C(SCCO)SCCO)c3c2)c1=O [Compound 33, 1,2-benzisothiazole-3-carboxaldehyde, 5-[3,6-dihydro-3-methyl-2,6-dioxo-4-(trifluoromethyl)-1(2H)-pyrimidinyl]-, 3-[bis(2-hydroxyethyl)dithioacetal]]	5.0	5.5	0.0	1.0	4.0	0.0	1.0	4.0	9.0	3.0	7.0	9.0	9.0	0.0	3.0	0.0	3.0	6.0	4.0	5.0	Postemergence herbicidal rating, IPOHE ([10]; rate 0.0320 kg/ha): 7.0; Postemergence herbicidal rating, IPOHE ([10]; rate 0.0620 kg/ha): 9.0; ECHCG preemergence herbicidal rating ([11]; Rate 0.0620 kg/ha): 0.0; ECHCG preemergence herbicidal rating ([11]; Rate 0.1250 kg/ha): 0.0; ECHCG preemergence herbicidal rating ([11]; Rate 0.2500 kg/ha): 5.0; SETVI preemergence herbicidal rating (SETVI (Setaria viridis); Rate 0.0620 kg/ha): 0.0; SETVI preemergence herbicidal rating (SETVI (Setaria viridis); Rate 0.1250 kg/ha): 0.0; SETVI preemergence herbicidal rating (SETVI (Setaria viridis); Rate 0.2500 kg/ha): 6.0; Postemergence herbicidal rating, ZEAMX (ZEAMX (Corn, Field); rate 0.0320 kg/ha): 5.0; Postemergence herbicidal rating, ZEAMX (ZEAMX (Corn, Field); rate 0.0620 kg/ha): 5.5; GALAP preemergence herbicidal rating (GALAP (Galium aparine) [12]; Rate 0.0620 kg/ha): 3.0; GALAP preemergence herbicidal rating (GALAP (Galium aparine) [12]; Rate 0.1250 kg/ha): 2.0; GALAP preemergence herbicidal rating (GALAP (Galium aparine) [12]; Rate 0.2500 kg/ha): 7.0
